Source: patent publication US20220105058A1, “USE OF 3-O-SULFAMATE-16,16-DIMETHYL-D-HOMOEQUILENIN TO TREAT ONCOLOGICAL DISEASES” (priority 2018, published 2022)
pIC50: −log10 of the molar value. Values joined by “and” are separate entries in the source; they are usually repeats but may differ in a detail not shown here. Equal values may be shown once. “Also recorded” adds a separate entry of the source. Read-outs that look alike come from different tables or passages of the source.

Legend:
[1] = test system: subcutaneous xenografts of human SKBR-3 breast cancer
Procedure: (§1) A comparative study of the medicaments in vivo was performed in female Balb/c nude mice with subcutaneously (s.c.) transplanted tumor cells. The experiment lasted for 29 days after the medicament administration for the first time (the administration of the medicaments was started on Day 5 after the tumor strain transplantation).
(§2) The medicament and the reference drug were administered intragastrically multiple times at doses of 30 mg/kg and 10 mg/kg daily for 21 days.
(§3) The placebo group was given 1% starch solution intragastrically in equivalent volumes and in the same regime. Tumor nodes were measured 2 times per week. […] Once the treatment was completed, the last tumor measurement was carried out, and animals were weighed and euthanized.
(§4) The animals were weighed on the first day of the experiment, and then 2 times per week throughout the experiment according to the research protocol.
(§5) A tumor node was measured after tumor transplantation 2 times per week throughout the experiment. The tumor node volume was determined by the formula:
(§6) V=π/6*L*W*H, where L, W, H are the linear size dimensions of the tumor.
(§7) Determination of Antitumor Activity
(§8) Tumor growth inhibition index (TGI) was used as a criterion for the study of the medicament efficacy and calculated by the formula as follows:
(§9) TGI (%)=|Vctrl−Vexp|/Vctrl*100
(§10) where Vctrl and Vexp are the average tumor volume (mm^3) in the control and in the experimental groups, respectively.
(§11) After the course of the treatment, the animals were euthanized by the cervical dislocation of cervical vertebrae.
(§12) The statistical data processing was conducted using SPSS 21 package (license No. 20130626-3). Descriptive statistics in the study includes the following: arithmetic average, standard deviation (SD), standard mean error (SE), median, quartiles, interquartile range. To compare quantitative characteristics in the groups, the Mann-Whitney-Wilcoxon test was used without corrections for multiple comparisons. The results were considered statistically significant at p<0.05.

[2] = test system: subcutaneous xenografts of human TNBC-Kad breast cancer
Procedure: as §1, §2, §3, §4, §5, §6, §7, §8, §9, §10, §11, §12

[3] = test system: triple negative breast cancer MDA-MB-231 cell line; assay: cell proliferation in MDA-MB-231; assay type: cell-based
[4] = test system: hepatocellular carcinoma SK-Hep-1 cells; assay: activity against SK-Hep-1 cells; assay type: cell-based; conditions: Homo sapiens, SK-HEP1
[5] = test system: gastric adenocarcinoma SNU638; assay: activity against SNU638; assay type: cell-based; conditions: Homo sapiens, SNU-638
[6] = test system: chronic myelogenous leukemia cells (K562); assay: activity against K562; assay type: cell-based
endometrium = assay: effects on the endometrium (summary statement)
[7] = pilot experiment, medicament 10 mg/kg, Day 10

Compound: CC/C(=C(\c1ccccc1)c1ccc(OCCN(C)C)cc1)c1ccccc1 [Tamoxifen]
- average tumor volume (M ± m) ([1]; Tamoxifen 10 mg/kg, Day 0): 0.7±0.1 mm^3
- average tumor volume (M ± m) ([1]; Tamoxifen 10 mg/kg, Day 3): 1.0 ± 0.3 mm^3
- SKBR-3 growth inhibition, TGI ([1]; Tamoxifen 10 mg/kg, Day 7): 63.9%
- average tumor volume (M ± m) ([1]; Tamoxifen 10 mg/kg, Day 7): 7.2±3.9 mm^3
- SKBR-3 growth inhibition, TGI ([1]; Tamoxifen 10 mg/kg, Day 10): 56.9%
- average tumor volume (M ± m) ([1]; Tamoxifen 10 mg/kg, Day 10): 33.4±16.1 mm^3
- SKBR-3 growth inhibition, TGI ([1]; Tamoxifen 10 mg/kg, Day 14): 60.6%
- average tumor volume (M ± m) ([1]; Tamoxifen 10 mg/kg, Day 14): 47.5±16.8 mm^3
- SKBR-3 growth inhibition, TGI ([1]; Tamoxifen 10 mg/kg, Day 17): 68.9%
- average tumor volume (M ± m) ([1]; Tamoxifen 10 mg/kg, Day 17): 58.0±18.2 mm^3
- SKBR-3 growth inhibition, TGI ([1]; Tamoxifen 10 mg/kg, Day 21): 45.4%
- average tumor volume (M ± m) ([1]; Tamoxifen 10 mg/kg, Day 21): 145.5 ± 70.9 mm^3
- SKBR-3 growth inhibition, TGI ([1]; Tamoxifen 10 mg/kg, Day 24): 9.5%
- average tumor volume (M ± m) ([1]; Tamoxifen 10 mg/kg, Day 24): 211.1 ± 94.0 mm^3
- average tumor volume (M ± m) ([1]; Tamoxifen 30 mg/kg, Day 0): 0.9±0.2 mm^3
- average tumor volume (M ± m) ([1]; Tamoxifen 30 mg/kg, Day 3): 2.0 ± 0.4 mm^3
- SKBR-3 growth inhibition, TGI ([1]; Tamoxifen 30 mg/kg, Day 7): 6.2%
- average tumor volume (M ± m) ([1]; Tamoxifen 30 mg/kg, Day 7): 18.8±7.4 mm^3
- SKBR-3 growth inhibition, TGI ([1]; Tamoxifen 30 mg/kg, Day 10): 12.6%
- average tumor volume (M ± m) ([1]; Tamoxifen 30 mg/kg, Day 10): 67.6 ± 21.1 mm^3
- SKBR-3 growth inhibition, TGI ([1]; Tamoxifen 30 mg/kg, Day 14): 2.9%
- average tumor volume (M ± m) ([1]; Tamoxifen 30 mg/kg, Day 14): 117.1 ± 41.7 mm^3
- SKBR-3 growth inhibition, TGI ([1]; Tamoxifen 30 mg/kg, Day 17): −17.1%
- average tumor volume (M ± m) ([1]; Tamoxifen 30 mg/kg, Day 17): 218.3 ± 63.6 mm^3
- SKBR-3 growth inhibition, TGI ([1]; Tamoxifen 30 mg/kg, Day 21): −44.2% and −44.4%
- average tumor volume (M ± m) ([1]; Tamoxifen 30 mg/kg, Day 21): 384.8±103.2 mm^3
- SKBR-3 growth inhibition, TGI ([1]; Tamoxifen 30 mg/kg, Day 24): −68.1%
- average tumor volume (M ± m) ([1]; Tamoxifen 30 mg/kg, Day 24): 392.1 mm^3
- antitumor efficacy ([1]; pilot experiment, Tamoxifen 10 mg/kg): not effective
- effect on tumor growth ([1]; pilot experiment, Tamoxifen 10 mg/kg, Days 10 to 17): tumor growth stimulation was recorded
- tumor growth inhibition over the entire observation period ([2]; Tamoxifen 10 mg/kg): no tumor growth inhibition was detected; also recorded: is not effective
- average tumor volume (M ± m) ([2]; Tamoxifen 10 mg/kg, Day 0): 2.3±0.8 mm^3 and 2.33 ± 0.76 mm^3
- average tumor volume (M ± m) ([2]; Tamoxifen 10 mg/kg, Day 3): 25.61 ± 5.56 mm^3
- TNBC_Kad growth inhibition, TGI ([2]; Tamoxifen 10 mg/kg, Day 7): 0.5%
- average tumor volume (M ± m) ([2]; Tamoxifen 10 mg/kg, Day 7): 79.17 ± 18.80 mm^3
- TNBC_Kad growth inhibition, TGI ([2]; Tamoxifen 10 mg/kg, Day 10): −20.7%
- average tumor volume (M ± m) ([2]; Tamoxifen 10 mg/kg, Day 10): 122.09 ± 27.84 mm^3
- TNBC_Kad growth inhibition, TGI ([2]; Tamoxifen 10 mg/kg, Day 14): −18.4%
- average tumor volume (M ± m) ([2]; Tamoxifen 10 mg/kg, Day 14): 193.24 ± 54.10 mm^3
- TNBC_Kad growth inhibition, TGI ([2]; Tamoxifen 10 mg/kg, Day 17): −22.6%
- average tumor volume (M ± m) ([2]; Tamoxifen 10 mg/kg, Day 17): 237.32 ± 77.07 mm^3
- TNBC_Kad growth inhibition, TGI ([2]; Tamoxifen 10 mg/kg, Day 21): −7.9%
- average tumor volume (M ± m) ([2]; Tamoxifen 10 mg/kg, Day 21): 322.76 ± 88.25 mm^3
- average tumor volume (M ± m) ([2]; Tamoxifen 30 mg/kg, Day 0): 4.1±1.2 mm^3 and 4.14 ± 1.22 mm^3
- average tumor volume (M ± m) ([2]; Tamoxifen 30 mg/kg, Day 3): 17.12 ± 4.12 mm^3
- average tumor volume (M ± m) ([2]; Tamoxifen 30 mg/kg, Day 7): 44.1±8.8 mm^3 and 44.13 ± 8.81 mm^3
- TNBC_Kad growth inhibition, TGI ([2]; Tamoxifen 30 mg/kg, Day 10): 39.4%
- average tumor volume (M ± m) ([2]; Tamoxifen 30 mg/kg, Day 10): 61.37 ± 12.03 mm^3
- TNBC_Kad growth inhibition, TGI ([2]; Tamoxifen 30 mg/kg, Day 14): 26.8%
- average tumor volume (M ± m) ([2]; Tamoxifen 30 mg/kg, Day 14): 119.53 ± 18.54 mm^3
- TNBC_Kad growth inhibition, TGI ([2]; Tamoxifen 30 mg/kg, Day 17): 26.7%
- average tumor volume (M ± m) ([2]; Tamoxifen 30 mg/kg, Day 17): 141.85 ± 35.07 mm^3
- TNBC_Kad growth inhibition, TGI ([2]; Tamoxifen 30 mg/kg, Day 21): 33.3%
- average tumor volume (M ± m) ([2]; Tamoxifen 30 mg/kg, Day 21): 199.54 ± 43.55 mm^3

Compound: CC1(C)CC(=O)[C@@]2(C)CCc3c(ccc4cc(OS(N)(=O)=O)ccc34)[C@@H]2C1 [medicament, 3-O-sulfamate-16,16-dimethyl-D-homoequilenin]
- inhibition of cell proliferation [3]: 83%
- pIC50 [4]: 4.27
- pIC50 [5]: 4.64
- activity against K562 cells [6]: active
- number of dead mice before the end of the observation period ([1]; medicament 10 mg/kg): 5 out of 7
- average tumor volume (M ± m) ([1]; medicament 10 mg/kg i.g. daily, Day 0 of treatment): 1.0±0.4 mm^3
- average tumor volume (M ± m) ([1]; medicament 10 mg/kg i.g. daily, Day 0 of treatment, listed as Steroid): 1.0 ± 0.4 mm^3
- average tumor volume (M ± m) ([1]; medicament 10 mg/kg, Day 3): 1.2 ± 0.4 mm^3
- SKBR-3 growth inhibition, TGI ([1]; medicament 10 mg/kg, Day 7): 74.3%
- average tumor volume (M ± m) ([1]; medicament 10 mg/kg, Day 7): 5.1±2.3 mm^3
- average tumor volume (M ± m) ([1]; medicament 10 mg/kg, Day 7, listed as Steroid): 5.1 ± 2.3 mm^3
- SKBR-3 growth inhibition, TGI ([1]; medicament 10 mg/kg, Day 10): 68.0%
- average tumor volume (M ± m) ([1]; medicament 10 mg/kg, Day 10): 24.8±12.2 mm^3
- average tumor volume (M ± m) ([1]; medicament 10 mg/kg, Day 10, listed as Steroid): 24.8 ± 12.2 mm^3
- SKBR-3 growth inhibition, TGI ([1]; medicament 10 mg/kg, Day 14): 94.3%
- average tumor volume (M ± m) ([1]; medicament 10 mg/kg, Day 14): 6.9±2.2 mm^3
- average tumor volume (M ± m) ([1]; medicament 10 mg/kg, Day 14, listed as Steroid): 6.9 ± 2.2 mm^3
- SKBR-3 growth inhibition, TGI ([1]; medicament 10 mg/kg, Day 17): 90.6%
- average tumor volume (M ± m) ([1]; medicament 10 mg/kg, Day 17): 17.6±0.7 mm^3
- average tumor volume (M ± m) ([1]; medicament 10 mg/kg, Day 17, listed as Steroid): 17.6 ± 0.7 mm^3
- SKBR-3 growth inhibition, TGI ([1]; medicament 10 mg/kg, Day 21): 90.2%
- average tumor volume (M ± m) ([1]; medicament 10 mg/kg, Day 21): 26.1±12.1 mm^3
- average tumor volume (M ± m) ([1]; medicament 10 mg/kg, Day 21, listed as Steroid): 26.2 ± 12.1 mm^3
- SKBR-3 growth inhibition, TGI ([1]; medicament 10 mg/kg, Day 24): 86.3%
- average tumor volume (M ± m) ([1]; medicament 10 mg/kg, Day 24): 32.0 ± 6.9 mm^3
- average tumor volume (Vaverage) [1, 7]: 2.2±2.0 mm^3
- maximum TGI [1, 7]: 91.2%
- number of dead mice before the end of the observation period ([2]; medicament 10 mg/kg): 10 out of 10
- average tumor volume (M ± m) ([2]; medicament 10 mg/kg, Day 3): 5.65 ± 1.64 mm^3
- TNBC_Kad growth inhibition, TGI ([2]; medicament 10 mg/kg, Day 7): 66.1%
- average tumor volume (M ± m) ([2]; medicament 10 mg/kg, Day 7): 27.0±5.1 mm^3 and 26.98 ± 5.12 mm^3
- TNBC_Kad growth inhibition, TGI ([2]; medicament 10 mg/kg, Day 10): 78.7%
- average tumor volume (M ± m) ([2]; medicament 10 mg/kg, Day 10): 21.6±4.9 mm^3 and 21.59 ± 4.88 mm^3
- TNBC_Kad growth inhibition, TGI ([2]; medicament 10 mg/kg, Day 14): 83.1%
- average tumor volume (M ± m) ([2]; medicament 10 mg/kg, Day 14): 27.6±2.6 mm^3 and 27.59 ± 2.57 mm^3
- TNBC_Kad growth inhibition, TGI ([2]; medicament 10 mg/kg, Day 17): 76.1%
- average tumor volume (M ± m) ([2]; medicament 10 mg/kg, Day 17): 46.3±5.3 mm^3 and 46.25 ± 5.31 mm^3
- average tumor volume (M ± m) ([2]; medicament i.g. 10 mg/kg, Day 0 of treatment): 1.6±0.4 mm^3 and 1.57 ± 0.35 mm^3
- efficacy compared with tamoxifen and letrozole ([2]; xenograft human tumor of triple negative breast cancer): more effective than tamoxifen and aromatase inhibitor letrozole
- negative effects on the endometrium (endometrium): absence of negative effects
